Data taken from US5340565A, “Tumor or cancer cell killing therapy and agents useful therefor” (priority 1992, dated 1994).
Where two headings read alike, the source gives them in different places.

How the values were obtained:
ADPRT = settings: Sims et al, Biochem. 21:1813-1821, 1982; cited from earlier work
[1] = system: human squamous cell carcinoma (SCC) (ABII) of the head and neck xeno-grafted to nude mice; test: Growth of human SCC (ABII) xenografted to nude mice, CDDP with or without metoclopramide; format: in vivo; settings: for Reduction in AUC (area under plotted tumor growth curves), agent given alone: schedules A and B, metoclopramide 2.0 mg/kg i.p. (x1 or x3), CDDP 7.5 mg/kg i.p.
Experimental: Cisplatin (cis-diamine-dichloroplatinum=CDDP) is a heavy metal complex with alkylating properties which allow bifunctional linking to DNA. CDDP has been used successfully as a chemotherapeutic agent to treat several types of human cancers. Since CDDP treatment regimes induce nausea and vomiting, metoclopramide is often co-administered therewith as an antiemetic drug.
Two administration schedules were tested: (A) metoclopramide (2.0 mg/kg i.p.) one hour before CDDP (7.5 mg/kg i.p.) and (B) metoclopramide (2.0 mg/kg×3 treatment times) given separately concomitant to CDDP (7.5 mg/kg i.p.) and 24 hr and 48 hr after CDDP administration. In both schedules the combined treatment was compared with CDDP alone, metoclopramide alone and with physiologic saline treated tumor bearing animals (controls). The tumor line used was a poorly difterentiated human SSC originating from the nose. There were n=10 animals in each group. Tumor diameters and animal weight were recorded and plotted twice weekly for 21 days. Treatment efficacies were compared using the area under the plotted growth curves (AUC).

[2] = Cytotoxicity by trypan blue exclusion in HML; format: cell-based; settings: human, mononuclear leukocytes
[3] = system: ADPRT (adenosine diphosphate ribosyl transferase); test: ADPRT activity in permeabilized HML after 30 min exposure; format: cell-based, human; settings: average of duplicates
Experimental: The data were recorded as cpm TCA precipitable [^3 H]NAD per 1×10^6 cells.

[4] = system: Human mononuclear leukocytes (HML); test: Cytotoxicity by trypan blue exclusion in HML; format: cell-based; settings: for % Dead Cells 30 min: 0.5 h
[5] = system: adenocarcinoma transplanted in C3H mice; settings: dose of 10 mg/kg, Kjellen and Pero 1987 abstract; cited from earlier work
calmodulin = settings: cited from earlier work
[6] = 100 μM agent, 30 min incubation, HML, read-out: % Dead Cells 30 min
[7] = 500 μM agent, 30 min incubation, HML, read-out: % Dead Cells 30 min

## Nc1cccc(C(=O)O)c1 [3-aminobenzoic acid]
ADPRT
  Inhibition of ADPRT: failed to inhibit ADPRT

## Nc1ccc(C(=O)O)cn1 [6-amino nicotinic acid]
ADPRT
  Inhibition of ADPRT: failed to inhibit ADPRT

## N.N.[Cl][Pt][Cl] [CDDP, cis-diamine-dichloroplatinum]
[1]; schedule B: CDDP 7.5 mg/kg i.p., metoclopramide 2.0 mg/kg x3 (concomitant, 24 hr, 48 hr), 21 days
  AUC as % of control tumor growth: 72 % of control tumor growth
[1]; 21 days
  Reduction in AUC (area under plotted tumor growth curves), agent given alone: significant reduction of AUC-values

## CN(C)CCCN1c2ccccc2Sc2ccc(Cl)cc21 [Chlorpromazine, 2chloro-N,N-dimethyl-10H-phenothiazine-10-propanamine]
[2]; [6]
  cytotoxicity at 0.5 h, 100 µM: 50%
[2]; [7]
  cytotoxicity at 0.5 h, 500 µM: 100%
[3]; 100 μM agent
  ADPRT Activity: 1508 cpm TCA precipitable [3H]NAD p
[3]; 500 μM agent
  ADPRT Activity: 890 cpm TCA precipitable [3H]NAD p

## CC(CN1CCN(CCOCCO)CC1)CN1c2ccccc2Sc2ccccc21 (centres unmarked) [Dixyrazine]
[2]; [6]
  cytotoxicity at 0.5 h, 100 µM: 13%
[2]; 100 μM agent, 18 hr incubation, HML, read-out: % Dead Cells 18 hr
  cytotoxicity at 18 h, 100 µM: 78%
[2]; [7]
  cytotoxicity at 0.5 h, 500 µM: 79%
[2]; 500 μM agent, 18 hr incubation, HML, read-out: % Dead Cells 18 hr
  cytotoxicity at 18 h, 500 µM: 100%
[3]; 100 μM agent
  ADPRT Activity: 385 cpm TCA precipitable [3H]NAD p
[3]; 500 μM agent
  ADPRT Activity: 850 cpm TCA precipitable [3H]NAD p

## OO [H2 O2]
[4]; 100 µM
  % Dead Cells 30 min: 5%
  % Dead Cells 18 hr: 40%
[4]; 300 µM
  % Dead Cells 30 min: 5%
  % Dead Cells 18 hr: 41%
[4]; 500 µM
  % Dead Cells 30 min: 7%
  % Dead Cells 18 hr: 55%
[4]; 1000 µM
  % Dead Cells 30 min: 12%
  % Dead Cells 18 hr: 71%
[3]; 100 μM agent
  ADPRT Activity: 1800 cpm TCA precipitable [3H]NAD p
[3]; 300 μM agent
  ADPRT Activity: 2700 cpm TCA precipitable [3H]NAD p
[3]; 500 μM agent
  ADPRT Activity: 2900 cpm TCA precipitable [3H]NAD p
[3]; 1000 μM agent
  ADPRT Activity: 3000 cpm TCA precipitable [3H]NAD p

## CCN(CC)CCNC(=O)c1cc(Cl)c(N)cc1OC [Metoclopramide, 4-amino-5-chloro-N-[(2-diethylamino)ethyl]-2-methoxy-benzamide]
[1]; schedule A: metoclopramide 2.0 mg/kg i.p. one hour before CDDP 7.5 mg/kg i.p.
  Effect of adding metoclopramide to CDDP on AUC: did not give any additive effect
[1]; schedule B: metoclopramide 2.0 mg/kg x3, concomitant to CDDP 7.5 mg/kg i.p. and 24 hr and 48 hr after
  Effect of adding metoclopramide to CDDP on AUC: potentiated the effect of CDDP
[1]; 21 days
  Reduction in AUC (area under plotted tumor growth curves), agent given alone: In neither schedule A nor B did metoclopramide alone induce any significant reduction in AUC
[2]
  cytotoxicity at 0.5 h, 500 µM: 7%
  cytotoxicity at 0.5 h, 2000 µM: 13%
  cytotoxicity at 0.5 h, 5000 µM: 10%
  cytotoxicity at 0.5 h, 10000 µM: 22%
  cytotoxicity at 18 h, 500 µM: 8%
  cytotoxicity at 18 h, 2000 µM: 29%
  cytotoxicity at 18 h, 5000 µM: 58%
  cytotoxicity at 18 h, 10000 µM: 88%
[3]; 500 μM agent
  ADPRT Activity: 530 cpm TCA precipitable [3H]NAD p
[3]; 2000 μM agent
  ADPRT Activity: 703 cpm TCA precipitable [3H]NAD p
[3]; 5000 μM agent
  ADPRT Activity: 950 cpm TCA precipitable [3H]NAD p
[3]; 10000 μM agent
  ADPRT Activity: 870 cpm TCA precipitable [3H]NAD p

## Cc1ccc(C2(O)CCN(CCCC(=O)c3ccc(F)cc3)CC2)cc1 [Moperone, 1(4-fluorophenyl)-4-[4-hydroxy-4(4-methylphenyl)1-piperidinyl]-1-butanone]
[2]; [6]
  cytotoxicity at 0.5 h, 100 µM: 5%
[2]; [7]
  cytotoxicity at 0.5 h, 500 µM: 7%
[2]; 1000 μM agent, 30 min incubation, HML, read-out: % Dead Cells 30 min
  cytotoxicity at 0.5 h, 1000 µM: 26%
[2]; 1000 μM agent, 18 hr incubation, HML, read-out: % Dead Cells 18 hr
  cytotoxicity at 18 h, 1000 µM: 100%
[3]; 100 μM agent
  ADPRT Activity: 529 cpm TCA precipitable [3H]NAD p
[3]; 500 μM agent
  ADPRT Activity: 712 cpm TCA precipitable [3H]NAD p
[3]; 1000 μM agent
  ADPRT Activity: 1112 cpm TCA precipitable [3H]NAD p

## NC(=O)c1cccnc1 [Nicotinamide]
[5]
  Radiosensitization of adenocarcinoma: will radiosensitize

## CC(CN(C)C)CN1c2ccccc2Sc2ccccc21 (centres unmarked) [Trimeprazine]
[2]
  cytotoxicity at 0.5 h, 500 µM: 95%
[2]; [6]
  cytotoxicity at 0.5 h, 100 µM: 7%
[3]; 100 μM agent
  ADPRT Activity: 639 cpm TCA precipitable [3H]NAD p
[3]; 500 μM agent
  ADPRT Activity: 571 cpm TCA precipitable [3H]NAD p

## NCCCCCCNS(=O)(=O)c1cccc2ccccc12 [W-5, N(6-aminohexyl)-naphthalenesulfonamide]
calmodulin; 50 μM
  Calmodulin antagonist activity at fixed concentration: inactive
calmodulin; Hidaka et al, Proc. Natl. Acad. Sci. U.S.A. 78:4354-4357, 1981, read-out: IC50 dose as calmodulin antagonist
  IC50: ~250 µM
[2]; 50 μM agent, 30 min incubation, HML, read-out: % Dead Cells 30 min
  cytotoxicity at 0.5 h, 50 µM: < 5%
[2]; [6]
  cytotoxicity at 0.5 h, 100 µM: < 5%
[2]; 200 μM agent, 30 min incubation, HML, read-out: % Dead Cells 30 min
  cytotoxicity at 0.5 h, 200 µM: 7%
[3]; 50 μM agent
  ADPRT Activity: 395 cpm TCA precipitable [3H]NAD p
[3]; 100 μM agent
  ADPRT Activity: 415 cpm TCA precipitable [3H]NAD p
[3]; 200 μM agent
  ADPRT Activity: 425 cpm TCA precipitable [3H]NAD p

## NCCCCCCNS(=O)(=O)c1cccc2c(Cl)cccc12 [W-7, N(6-aminohexyl)-5-chloro-1-naphthalenesulfonamide]
[2]
  cytotoxicity at 0.5 h, 50 µM: 10%
  cytotoxicity at 0.5 h, 100 µM: 25%
  cytotoxicity at 0.5 h, 200 µM: 90%
[3]; 50 μM agent
  ADPRT Activity: 750 cpm TCA precipitable [3H]NAD p
[3]; 100 μM agent
  ADPRT Activity: 910 cpm TCA precipitable [3H]NAD p
[3]; 200 μM agent
  ADPRT Activity: 1480 cpm TCA precipitable [3H]NAD p

## NC(=O)c1ccccc1 [benzamide]
[5]
  Radiosensitization of adenocarcinoma: totally ineffective

## O=C(O)c1ccccc1 [benzoic acid]
ADPRT
  Inhibition of ADPRT: failed to inhibit ADPRT

## O=C(O)c1ccncc1 [isonicotinic acid]
ADPRT
  Inhibition of ADPRT: failed to inhibit ADPRT

## pyrazine 1,2-dicarboxylic acid
ADPRT
  Inhibition of ADPRT: failed to inhibit ADPRT
